Assay results: US20070185115A1, “Novel ureido-and amido-pyrazolone derivatives” (Aston University, priority 2003, published 2007)
pIC50: −log10 of the molar value. Read-outs that look alike come from different tables or passages of the source. Blank lines part the entries; values can stand above or below the compound they belong to.

What was measured:
CCKB receptor = biological target: T1, CCKB receptor (Cavia porcellus, UniProt H0VZC5); assay: 125I-CCK-8 receptor binding assay, CCKB (guinea pig cerebral cortex membranes)
T1 construct: Male guinea pig brain tissues were prepared according to the modified method described by Saita et al; from tissue; host or cells: guinea pig cerebral cortex membranes
T1 sequence (H0VZC5 1-426): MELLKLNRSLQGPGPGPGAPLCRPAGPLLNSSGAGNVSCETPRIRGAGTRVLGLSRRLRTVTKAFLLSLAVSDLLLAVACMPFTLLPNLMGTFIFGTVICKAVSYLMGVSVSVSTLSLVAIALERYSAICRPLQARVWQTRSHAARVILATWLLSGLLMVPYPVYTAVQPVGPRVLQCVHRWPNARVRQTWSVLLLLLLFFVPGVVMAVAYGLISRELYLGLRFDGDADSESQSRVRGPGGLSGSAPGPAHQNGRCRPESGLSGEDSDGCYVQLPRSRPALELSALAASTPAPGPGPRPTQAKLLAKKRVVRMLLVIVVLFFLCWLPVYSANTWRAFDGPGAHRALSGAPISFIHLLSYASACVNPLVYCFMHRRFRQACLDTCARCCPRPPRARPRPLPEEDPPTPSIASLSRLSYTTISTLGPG
Description: (§1) Pharmacological Methods—^[125]I-CCK-8 Receptor Binding Assay
(§2) CCKA and CCKB receptor binding assays were performed, by using guinea pig cerebral cortex (CCKB) or rat pancreas (CCKA). Male guinea pig brain tissues were prepared according to the modified method described by Saita et al, [(1994), Characterization of YM022: its CCKB/gastrin receptor binding profile and antagonism to CCK-8-induced Ca2+mobilization., Eur. J. PharmacoL,269, 249-254]. Pancreatic membranes were prepared in a similar way but by Charpentier et al, [(1988), Cyclic cholecystokinin analogues with high selectivity for central receptors., Proc Natl Acad Sci USA, 85, 1968-1972]. For the in vivo CCK binding assay tissues were homogenised in ice cold sucrose (0.32 M, 25 ml) for 15 strokes at 500 rpm and centrifuged at 13000 rpm for 10 mins. The supernatant was re-centrifuged at 13000 rpm for 20 mins. The resulting pellet was re-dispersed to the required volume of buffer at 500 rpm and stored in aliquots at […].
(§3) Binding was achieved using a.radioligand ^125I-Bolton-Hunter labeled CCK, NEN at 25 pM. The samples were incubated {with membranes (0.1 mg/ml)} in 20 mM Hepes, 1 mM EGTA, 5 mM MgCl2, 150 mm NaCl, 0.25 mg/ml bacitracin at pH 6.5 for 2 hrs at RT and then […] by centrifugation at 1100 rpm for 5 minutes. The membrane pellets were washed twice with water and the bound radioactivity was measured in a Packard Cobra Auto-gamma counter (B5005). All binding assays were carried out with L-365, 260 (Bock, M. G., et. al., Benzodiazepine gastrin and brain cholecystokinin receptor ligands. L-365,260, J. Med. Chem. 1989, 32, 14-24) as an internal non-specific standard. Controls (no compound) were also added. All samples were made in duplicate and repeated twice. All compounds were initially screened for percentage inhibition at 20 μm.

CCKA receptor = biological target: T2, CCKA receptor (Rattus norvegicus, UniProt P30551); assay: 125I-CCK-8 receptor binding assay, CCKA (rat pancreas membranes); settings: for Ratio A/B: ratio of CCKB and CCKA IC50 values
T2 construct: Pancreatic membranes were prepared in a similar way but by Charpentier et al; from tissue; host or cells: rat pancreas membranes
T2 sequence (P30551 1-444): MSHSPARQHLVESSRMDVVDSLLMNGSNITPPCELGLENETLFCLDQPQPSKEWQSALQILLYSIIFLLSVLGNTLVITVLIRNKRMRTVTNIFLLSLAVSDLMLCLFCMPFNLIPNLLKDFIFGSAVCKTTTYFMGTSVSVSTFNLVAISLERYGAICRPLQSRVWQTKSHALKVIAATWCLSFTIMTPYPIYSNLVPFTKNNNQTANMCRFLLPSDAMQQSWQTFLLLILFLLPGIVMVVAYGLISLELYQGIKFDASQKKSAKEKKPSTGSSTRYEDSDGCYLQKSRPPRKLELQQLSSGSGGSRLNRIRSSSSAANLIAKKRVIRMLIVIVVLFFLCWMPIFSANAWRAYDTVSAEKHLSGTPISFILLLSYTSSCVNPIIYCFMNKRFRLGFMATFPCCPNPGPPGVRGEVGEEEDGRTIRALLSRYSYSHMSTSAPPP
Description: as §1, §2, §3

[1] = Table 1, phenyl pyrazolinone ureas, guinea pig cerebral cortex, 125I-Bolton-Hunter CCK 25 pM, read-out: IC50 CCKB
[2] = Table 2, phenylpyrazolinone amides, rat pancreas, 125I-Bolton-Hunter CCK 25 pM, read-out: IC50 CCKA
[3] = Table 2, phenylpyrazolinone amides, guinea pig cerebral cortex, 125I-Bolton-Hunter CCK 25 pM, read-out: IC50 CCKB
[4] = Table 3, diphenyl pyrazolyl ureas, rat pancreas, 125I-Bolton-Hunter CCK 25 pM, read-out: IC50 CCKA
[5] = Table 3, diphenyl pyrazolyl ureas, guinea pig cerebral cortex, 125I-Bolton-Hunter CCK 25 pM, read-out: IC50 CCKB
[6] = Table 4, diphenyl pyrazolinone amides, rat pancreas, 125I-Bolton-Hunter CCK 25 pM, read-out: IC50 CCKA
[7] = Table 4, diphenyl pyrazolinone amides, guinea pig cerebral cortex, 125I-Bolton-Hunter CCK 25 pM, read-out: IC50 CCKB

Compound: Cc1c(NC(=O)NC2CCCCC2)c(=O)n(-c2ccccc2)n1C [Example 14]
pIC50 (CCKB receptor; [1]): < 5.00

Compound: Cc1c(NC(=O)CCc2c[nH]c3ccccc23)c(=O)n(-c2ccccc2)n1C [Example 17, N-(1,5-Dimethyl-3-oxo-2-phenyl-2 3dihydro-1H-pyrazol-4yl)-3-(1H-indol-3-yl)propanamide]
pIC50 (CCKA receptor; [2]): 6.00 | Ratio A/B (CCKA receptor; Table 2): 4 | pIC50 (CCKB receptor; [3]): 5.40

Compound: Cc1c(NC(=O)c2c[nH]c3ccccc23)c(=O)n(-c2ccccc2)n1C [Example 18]
pIC50 (CCKA receptor): 5.70 | pIC50 (CCKB receptor): 4.82

Compound: Cc1c(NC(=O)Cc2c[nH]c3ccccc23)c(=O)n(-c2ccccc2)n1C [Example 19]
pIC50 (CCKA receptor; [2]): 5.70 | pIC50 (CCKB receptor; [3]): 5.05

Compound: COc1cccc(NC(=O)Nc2c(C)n(-c3ccccc3)n(-c3ccccc3)c2=O)c1 [Example 21, N-(5-methyl-3-oxo-1,2-diphenyl-2,3-dihydro-1H-pyrazol-4-yl)N′-3-methoxyphenylurea]
pIC50 (CCKA receptor; [4]): 8.00 | pIC50 (CCKB receptor; [5]): 7.46

Compound: Cc1c(NC(=O)Nc2ccc(Br)cc2)c(=O)n(-c2ccccc2)n1-c1ccccc1 [Example 24, N-(4-Bromophenyl)-N′-(5-methyl-3-oxo-1,2-diphenyk-2,3-dihydro-1H-pyrazol-4-yl)urea]
pIC50 (CCKB receptor; [5]): < 4.70

Compound: Cc1c(NC(=O)Nc2ccccc2[N+](=O)[O-])c(=O)n(-c2ccccc2)n1-c1ccccc1 [Example 25, N-(5-Methyl-3-oxo-1,2-diphenyl-2,3-dihydro-1H-pyrazol-4yl)N′-2-nitrophenylurea]
pIC50 (CCKB receptor; [5]): 5.12

Compound: Cc1c(NC(=O)Nc2ccccc2)c(=O)n(-c2ccccc2)n1-c1ccccc1 [Example 26, N-(5-Methyl-3oxo-1,2diphenyl-2,3-dihydro-1H-pyrazol4-yl)—N′-phenylurea]
pIC50 (CCKB receptor; [5]): 5.52

Compound: Cc1c(NC(=O)NC2CCCCC2)c(=O)n(-c2ccccc2)n1-c1ccccc1 [Example 27]
pIC50 (CCKB receptor; [5]): 6.07

Compound: COc1ccc(NC(=O)Nc2c(C)n(-c3ccccc3)n(-c3ccccc3)c2=O)cc1 [Example 29]
pIC50 (CCKB receptor; [5]): < 4.70

Compound: Cc1ccccc1NC(=O)Nc1c(C)n(-c2ccccc2)n(-c2ccccc2)c1=O [Example 30]
pIC50 (CCKB receptor; [5]): < 4.70

Compound: Cc1ccc(NC(=O)Nc2c(C)n(-c3ccccc3)n(-c3ccccc3)c2=O)cc1 [Example 31]
pIC50 (CCKB receptor; [5]): < 4.70

Compound: Cc1c(NC(=O)Nc2ccc(Cl)cc2)c(=O)n(-c2ccccc2)n1-c1ccccc1 [Example 32]
pIC50 (CCKB receptor; [5]): < 4.70

Compound: Cc1c(NC(=O)Nc2cccc3ccccc23)c(=O)n(-c2ccccc2)n1-c1ccccc1 [Example 34]
pIC50 (CCKB receptor; [5]): < 4.70

Compound: Cc1c(NC(=O)NC(C)(C)C)c(=O)n(-c2ccccc2)n1-c1ccccc1 [Example 35]
pIC50 (CCKB receptor; [5]): 6.00

Compound: Cc1c(NC(=O)c2cc3ccccc3[nH]2)c(=O)n(-c2ccccc2)n1-c1ccccc1 [Example 36, N-(5-Methyl-3-oxo-1,2-diphenyl-2,3dihydro-1H-pyrazol-4yl)-1H-indole-2-carboxamide]
pIC50 (CCKA receptor; [6]): 7.70 | Ratio A/B (CCKA receptor; Table 4): 1.5 | pIC50 (CCKB receptor; [7]): 7.52

Compound: Cc1c(NC(=O)c2c[nH]c3ccccc23)c(=O)n(-c2ccccc2)n1-c1ccccc1 [Example 37, N-(5-Methyl-3-oxo-1,2-diphenyl-2,3-dihydro-1H-pyrazol-4yl)-1H-indole-3-carboxamide]
pIC50 (CCKA receptor; [6]): 5.70 | Ratio A/B (CCKA receptor; Table 4): 1.8 | pIC50 (CCKB receptor; [7]): 5.46

Compound: Cc1c(NC(=O)Cc2c[nH]c3ccccc23)c(=O)n(-c2ccccc2)n1-c1ccccc1 [Example 38]
pIC50 (CCKA receptor; [6]): 7.70 | Ratio A/B (CCKA receptor; Table 4): 125 | pIC50 (CCKB receptor; [7]): 5.60

Compound: Cc1c(NC(=O)CCc2c[nH]c3ccccc23)c(=O)n(-c2ccccc2)n1-c1ccccc1 [Example 39, N-(5-Methyl-3-oxo-1,2-diphenyl-2,3-dihydro-1H-pyrazol-4-yl)-3-(1H-indol-3-yl)propanamide]
pIC50 (CCKA receptor; [6]): 7.60 | Ratio A/B (CCKA receptor; Table 4): 80 | pIC50 (CCKB receptor; [7]): 5.70

Compound: Cc1c(NC(=O)CCCc2c[nH]c3ccccc23)c(=O)n(-c2ccccc2)n1-c1ccccc1 [Example 40, N-(5Methyl-3-oxo-1,2-diphenyl-2,3-dihydro-1H-pyrazol-4yl)-4-(1H-indol-3-yl)butanamide]
Ratio A/B (CCKA receptor; Table 4): 1

Second part, the compound after the results:

pIC50 (CCKB receptor; [1]): 5.60
Compound: Cc1c(NC(=O)Nc2ccc(Cl)cc2)c(=O)n(-c2ccccc2)n1C [Example 3, N-(4-chlorophenyl)-N′-(1,5-dihiethyl-3-oxo-2-phenyl-2,3-dihydro-1H-pyrazol-4-yl)urea]

pIC50 (CCKB receptor; [1]): < 5.00
Compound: COc1ccc(NC(=O)Nc2c(C)n(C)n(-c3ccccc3)c2=O)cc1 [Example 6]

pIC50 (CCKB receptor; [1]): 5.30
Compound: Cc1cccc(NC(=O)Nc2c(C)n(C)n(-c3ccccc3)c2=O)c1 [Example 8]

pIC50 (CCKB receptor; [1]): < 4.70
Compound: Cc1ccc(NC(=O)Nc2c(C)n(C)n(-c3ccccc3)c2=O)cc1 [Example 9]

pIC50 (CCKB receptor; [1]): < 5.00
Compound: Cc1c(NC(=O)Nc2cccc(Cl)c2)c(=O)n(-c2ccccc2)n1C [Example 10]

pIC50 (CCKB receptor; [1]): 5.15
Compound: Cc1c(NC(=O)Nc2ccc(Br)cc2)c(=O)n(-c2ccccc2)n1C [Example 11]

pIC50 (CCKB receptor; [1]): < 4.70
Compound: Cc1c(NC(=O)Nc2ccccc2[N+](=O)[O-])c(=O)n(-c2ccccc2)n1C [Example 12]

pIC50 (CCKA receptor; [2]): 7.10 | Ratio A/B (CCKA receptor; Table 2): 11.3 | pIC50 (CCKB receptor; [3]): 6.05
Compound: Cc1c(NC(=O)c2cc3ccccc3[nH]2)c(=O)n(-c2ccccc2)n1C [Example 16]

pIC50 (CCKA receptor; [4]): 7.70 | pIC50 (CCKB receptor; [5]): 7.60
Compound: Cc1cccc(NC(=O)Nc2c(C)n(-c3ccccc3)n(-c3ccccc3)c2=O)c1 [Example 22, N-(5-Methyl-3-oxo-1,2-diphenyl-2,3-dihydro-1H-pyrazol4-yl)N′-3-methylphenylurea]
